From patent US10022354B2, “Pyrrolidine amide compounds as histone demethylase inhibitors” (GENENTECH, INC., priority 2014, dated 2018) come the findings set out here.

pIC50: −log10 of the molar value.

The target of this assay is full length KDM5A enzyme (Homo sapiens (Human), UniProt P29375). The assay is described as follows: KDM5 Enzyme Assay (KDM5A HTRF). In kind it is biochemical. Particulars: 2 nM full length KDM5A, 100 nM H3K4Me3 peptide, 1 uM 2-OG, 30 min room temperature. The procedure: Full length KDM5A enzyme was expressed and purified inhouse. Biotin-H3K4me3 peptide was purchased from New England Biolabs. HTRF reagents (containing Eu-labeled H3K4me1-2 antibody, and streptavidin-XL665) were purchased from Cis-Bio International. Plates were read on an Envision multi-label plate reader (Perkin Elmer).
Sequence of full length KDM5A enzyme (P29375 whole entry): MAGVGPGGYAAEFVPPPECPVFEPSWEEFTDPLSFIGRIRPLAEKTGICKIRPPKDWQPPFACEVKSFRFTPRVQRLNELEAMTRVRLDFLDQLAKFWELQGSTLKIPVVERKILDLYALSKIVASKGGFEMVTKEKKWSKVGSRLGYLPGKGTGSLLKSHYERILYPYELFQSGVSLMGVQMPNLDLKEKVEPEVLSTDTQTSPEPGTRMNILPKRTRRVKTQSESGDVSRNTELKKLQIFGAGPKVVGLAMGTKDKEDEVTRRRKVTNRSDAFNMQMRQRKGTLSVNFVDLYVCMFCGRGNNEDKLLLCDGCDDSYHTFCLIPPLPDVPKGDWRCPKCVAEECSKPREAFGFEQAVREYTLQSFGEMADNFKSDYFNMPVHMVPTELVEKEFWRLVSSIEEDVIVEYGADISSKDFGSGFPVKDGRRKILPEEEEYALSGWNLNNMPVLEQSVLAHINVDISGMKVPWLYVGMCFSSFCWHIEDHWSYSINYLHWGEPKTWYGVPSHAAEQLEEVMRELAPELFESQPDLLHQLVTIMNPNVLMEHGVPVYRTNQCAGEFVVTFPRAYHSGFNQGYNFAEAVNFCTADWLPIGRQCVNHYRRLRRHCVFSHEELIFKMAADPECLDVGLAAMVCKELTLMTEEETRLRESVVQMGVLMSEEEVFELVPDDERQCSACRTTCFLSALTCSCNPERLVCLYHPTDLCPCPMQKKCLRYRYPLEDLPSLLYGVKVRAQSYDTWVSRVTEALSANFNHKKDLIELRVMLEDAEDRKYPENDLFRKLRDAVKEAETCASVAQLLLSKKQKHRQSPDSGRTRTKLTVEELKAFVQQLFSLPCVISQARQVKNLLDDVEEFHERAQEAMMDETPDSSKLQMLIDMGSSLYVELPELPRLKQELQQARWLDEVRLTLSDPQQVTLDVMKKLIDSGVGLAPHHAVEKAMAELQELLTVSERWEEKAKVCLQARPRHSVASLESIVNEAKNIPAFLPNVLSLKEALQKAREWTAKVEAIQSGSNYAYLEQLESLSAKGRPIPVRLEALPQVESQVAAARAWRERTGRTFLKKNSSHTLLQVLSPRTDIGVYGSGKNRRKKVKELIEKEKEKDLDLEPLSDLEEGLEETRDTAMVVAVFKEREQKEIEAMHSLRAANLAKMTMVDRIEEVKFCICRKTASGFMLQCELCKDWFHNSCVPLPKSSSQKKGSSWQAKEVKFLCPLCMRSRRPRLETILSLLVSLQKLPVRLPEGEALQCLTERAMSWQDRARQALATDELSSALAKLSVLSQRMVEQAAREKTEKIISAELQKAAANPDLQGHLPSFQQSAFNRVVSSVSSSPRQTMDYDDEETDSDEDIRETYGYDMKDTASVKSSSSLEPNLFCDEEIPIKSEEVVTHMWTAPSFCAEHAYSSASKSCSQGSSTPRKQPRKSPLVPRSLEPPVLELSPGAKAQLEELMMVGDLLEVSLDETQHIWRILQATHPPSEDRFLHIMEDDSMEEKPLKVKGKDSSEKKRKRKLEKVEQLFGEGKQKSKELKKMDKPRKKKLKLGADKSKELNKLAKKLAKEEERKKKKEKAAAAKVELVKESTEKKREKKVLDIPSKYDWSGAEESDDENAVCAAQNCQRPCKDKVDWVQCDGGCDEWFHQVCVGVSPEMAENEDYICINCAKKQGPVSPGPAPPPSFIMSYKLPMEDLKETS
The HTRF assay mixture contained 2 nM full length KDM5A enzyme, 100 nM H3K4Me3 peptide substrate, 1 uM 2-OG, 100 uM Fe^2+, 500 uM ascorbate. 50 mM HEPES pH 7.0 buffer, 0.01% Triton-X 100, 2 mM DTT, 0.25% DMSO at a final volume of 10 uL.
The plates were incubated at room temperature for 60 minutes and then read in the Envision plate reader.

As to `CCCc1cc(C(=O)N2CCC(c3cc(-c4cnn(C)c4)cc(C)n3)C2)[nH]n1` (stereo not shown) [Example 46], the pIC50 – broadly, the IC50 on a negative log10 scale, so that one unit is a factor of ten – is 9.27.

In turn, `Cc1cc(-c2cn[nH]c2)cc(C2CCN(C(=O)c3cc(C(C)C)n[nH]3)C2)n1` (stereo not shown) [Example 94] gave a pIC50 of 9.68.

On to `Cc1cc(-c2cccc(Cl)c2)cc(C2CCN(C(=O)c3cc(C(C)C)n[nH]3)C2)n1` (stereo not shown) [Example 84], for which the pIC50 is 9.40. This pIC50 lies 0.28 log units lower than the previous one.

Consider `Cc1cc(C(=O)N(C)C)cc(C2CCN(C(=O)c3cc(C(C)C)n[nH]3)C2)n1` (stereo not shown) [Example 5, 2-(1-(3-Isopropyl-1H-pyrazole-5-carbonyl)pyrrolidin-3-yl)-N,N,6-trimethylisonicotinamide], for which the pIC50 is 8.13.

Consider `CC(C)c1cc(C(=O)N2CCC(n3cc(Br)c(C(F)F)n3)C2)[nH]n1` (stereo not shown) [Example 239], for which the pIC50 is 9.46.

`Cc1cc(-c2cnc(C)s2)cc(C2CCN(C(=O)c3cc(C(C)C)n[nH]3)C2)n1` (stereo not shown) [Example 81] showed a pIC50 of 9.17.

`Cc1cc(NCc2ccccc2)cc(C2CCN(C(=O)c3cc(C(C)C)n[nH]3)C2)n1` (stereo not shown) [Example 11, (3-(4-(Benzylamino)-6-methylpyridin-2-yl)pyrrolidin-1-yl)(3-isopropyl-1H-pyrazol-5-yl)methanone] showed a pIC50 of 7.96.

On to `CC(C)c1cc(C(=O)N2CC[C@@H](n3ncc4ccccc43)C2)[nH]n1` [Example 243], for which the pIC50 is 9.04.

`Cc1cc(-c2cccc(C#N)c2)cc(C2CCN(C(=O)c3cc(C(C)C)n[nH]3)C2)n1` (stereo not shown) [Example 67]: the pIC50 was 9.46.

`CC(C)c1cc(C(=O)N2CCC(NC(=O)C3COC3)C2)[nH]n1` (stereo not shown) [Example 179] gave a pIC50 of 9.62.

`O=C(NC1CCN(C(=O)c2cc(Br)n[nH]2)C1)C1CC1` (stereo not shown) [Example 205] gave a pIC50 of 7.85.

`Cc1ccc(-c2cc(C)nc(C3CCN(C(=O)c4cc(C(C)C)n[nH]4)C3)c2)cc1` (stereo not shown) [Example 3, (3-Isopropyl-1H-pyrazol-5-yl)(3-(6-methyl-4-(p-tolyl)pyridin-2-yl)pyrrolidin-1-yl) methanone] showed a pIC50 of 9.66.

As for `Cc1cc(-c2cnn(C)c2)cc([C@H]2CCN(C(=O)c3cc(C(C)C)n[nH]3)C2)n1` (single isomer, unassigned) [Example 1], the pIC50 was 9.77.

The molecule `Cc1cc(-c2cnn(C)c2)cc(C2=CCN(C(=O)c3cc(C(C)C)n[nH]3)C2)n1` [Example 108] had a pIC50 of 7.74.

For `CC(C)c1cc(C(=O)N2CCC(NC(=O)C3CNC3)C2)[nH]n1` (stereo not shown) [Example 118], the pIC50 is 8.28.

In the case of `Cc1cc(NS(=O)(=O)c2ccccc2)cc(C2CCN(C(=O)c3cc(C(C)C)n[nH]3)C2)n1` (stereo not shown) [Example 57], the pIC50 is 7.77. This pIC50 lies 0.51 log units lower than the previous one.

On to `CC(C)c1cc(C(=O)N2CCC(NC(=O)c3cccc(Cl)c3)C2)[nH]n1` (stereo not shown) [Example 110], for which the pIC50 is 9.60. Compared with the last molecule, the pIC50 is 1.83 log units higher.

The molecule `COc1cccc(-c2cc(C)nc(C3CCN(C(=O)c4cc(C(C)C)n[nH]4)C3)c2)c1` (stereo not shown) [Example 62] had a pIC50 of 9.66.

In the case of `CC(C)c1cc(C(=O)N2CC[C@@H](n3cccc(C(C)C)c3=O)C2)[nH]n1` [Example 42, (R)-3-isopropyl-1-(1-(3-isopropyl-1H-pyrazole-5-carbonyl)pyrrolidin-3-yl)pyridin-2(1H)-one], the pIC50 was 10.09.

On to `CC(C)c1cc(C(=O)N2CC[C@@H](n3cc4c(F)cccc4n3)C2)[nH]n1` [Example 247], for which the negative-log IC50 (pIC50) is 9.37.

The molecule `Cc1cc(-c2cnn(C)c2)cc(C2CCN(C(=O)c3cc(C4CC4)n[nH]3)C2)n1` (stereo not shown) [Example 47] had a pIC50 of 9.40.

As for `CC(C)c1cc(C(=O)N2CCC(NC(=O)C3CCOC3)C2)[nH]n1` (stereo not shown) [Example 132], the pIC50 is 9.92. This pIC50 lies 0.52 log units higher than the previous one.

As to `CC(C)c1cc(C(=O)N2CCC(NC(=O)c3ccc(Cl)cc3)C2)[nH]n1` (stereo not shown) [Example 111], the pIC50 was 9.12. Compared with the last molecule, the pIC50 is 0.80 log units lower.

For `Cc1cc(-c2cn(C)nc2C)cc(C2CCN(C(=O)c3cc(C(C)C)n[nH]3)C2)n1` (stereo not shown) [Example 88], the pIC50 was 9.36.

Consider `Cc1cc(-c2ccc(Cl)cc2)cc(C2CCN(C(=O)c3cc(C(C)C)n[nH]3)C2)n1` (stereo not shown) [Example 82], for which the negative-log IC50 (pIC50) is 9.80. This pIC50 lies 0.44 log units higher than the previous one.
